Tested on: parasites (ring stage parasites, parasite growth)
Assay: Parasite LDH growth assay (Parasite Assay), antiparasite potency
Assay type: cell-based
Conditions: 72 hours growth, LDH readout
Protocol: Assessing Antiparasite Potency in a Parasite LDH Growth Assay (Parasite Assay) The parasite stock was maintained at […] in RPMI-Hepes media buffered with sodium bicarbonate and supplemented with […]. […] On the day of assay set up, a blood smear of the parasite culture was Giemsa stained and counted. The parasitemia was adjusted to 0.7% rings and the haematocrit was diluted to 2% in RPMI-Hepes media buffered with sodium bicarbonate and supplemented with 500 heat inactivated human serum and 0.5% albumax. 30 ul of diluted parasites are then added into 10 ul of media+compound in pre-prepared Greiner TC assay plates. Parasite assay plates were placed in gassed humidified boxes in single layer and allowed to incubate at 37° C. for 72 hours. After 72 hours growth, assay plates are sealed with parafilm and frozen flat, in single file at −80° C. overnight. On the following day, assay plates are allowed to thaw at room temperature for 4 hours to which an LDH assay is performed to measure parasite growth.

For `CC1(C)CC(=O)N([C@H](c2cccnc2)[C@@H]2C[C@H]2C(=O)N[C@H]2C[C@H](C(F)(F)F)Oc3ccccc32)C(=N)N1` [Example 32], which EC50 (72 h, Table 3) is on record?
The EC50 was 1.8 nM.

For `COCC[C@H]([C@@H]1C[C@H]1C(=O)NC1CC(C)(C(C)C)Oc2ccccc21)N1C(=N)NC(C)(C)CC1=O` (single isomer, unassigned) [Example 80A], which EC50 (Table 3) is on record?
The EC50 was 9.4 nM.

`CC1(C)CC(=O)N(C[C@@H]2C[C@H]2C(=O)NC2CC(C)(C)Oc3ccc(OC(F)(F)F)cc32)C(=N)N1` (some centres unmarked) [Example 125B] was tested. Which EC50 (Table 3) did it give?
Its EC50 is 160 nM.

For `COCC[C@H]([C@@H]1C[C@H]1C(=O)N[C@@H]1CC(C)(C)Oc2cccc(F)c21)N1C(=N)NC(C)(C)CC1=O` [Example 88B], which EC50 (72 h, Table 3) is on record?
Its EC50 is 10 nM.

With `CCC1(CC)CC(=O)N(C[C@@H]2C(C)[C@H]2C(=O)N[C@@H]2c3ccccc3CC2(C)O)C(=N)N1` (single isomer, unassigned) [Example 29B] as the compound, how does the EC50 (Table 3) read?
The EC50 was 351 nM.

`CC[C@]1(C)CC(=O)N([C@H](CCOC)[C@@H]2C[C@H]2C(=O)N[C@H]2CC(C)(C)Oc3ccc(C)cc32)C(=N)N1` [Example 123] was tested. Which EC50 (72 h, Table 3) did it give?
The EC50 was 2 nM.

For `CC1C[C@H](NC(=O)[C@@H]2C[C@H]2CN2C(=N)NC(C)(C)CC2=O)c2cc(F)ccc2O1` (some centres unmarked) [Example 139A], which EC50 (72 h, Table 3) is on record?
The EC50 was 99 nM.

How did the EC50 (72 h, Table 3) turn out when `COCC[C@H]([C@@H]1C[C@H]1C(=O)N[C@H]1CC(C)(C)Oc2cc(Cl)ccc21)N1C(=N)NC(C)(C)CC1=O` [Example 89A] was run?
The EC50 was 5.6 nM.

With `COCC[C@H]([C@@H]1C[C@H]1C(=O)NC1CC(C)(C)Oc2ccccc21)N1C(=N)NC(C)(C)CC1=O` (some centres unmarked) [Example 23B] as the compound, how does the EC50 (Table 3) read?
Its EC50 is 15 nM.

With `COCC[C@H]([C@@H]1C[C@H]1C(=O)NC1CC(C)(C)Oc2ccccc21)N1C(=N)NC(C)(C)CC1=O` (some centres unmarked) [Example 23A] as the compound, how does the EC50 (72 h, Table 3) read?
Its EC50 is 16 nM.

With `CC1(C)CC(=O)N([C@H](c2cccnc2)[C@@H]2C[C@H]2C(=O)NC2CC(C)(C)Oc3ccc(F)cc32)C(=N)N1` (single isomer, unassigned) [Example 98B] as the compound, how does the EC50 (Table 3) read?
The EC50 was 2.2 nM.

For `COCC[C@H]([C@@H]1C[C@H]1C(=O)N[C@H]1CC(C)(C)Oc2c(F)cc(F)cc21)N1C(=N)NC(C)(C)CC1=O` [Example 113B], which EC50 (72 h, Table 3) is on record?
The EC50 was 7.5 nM.

How did the EC50 (72 h, Table 3) turn out when `CC1(C)CC(=O)N(C(c2cccnc2)[C@H]2[C@H](C(=O)N[C@H]3CC(C)(C)Oc4ccccc43)C2(C)C)C(=N)N1` (some centres unmarked) [Example 49A] was run?
Its EC50 is 20 nM.

With `CC1(C)CC(=O)N(C[C@@H]2C[C@H]2C(=O)N[C@H]2CC(C)(C)Oc3ccc(C(F)(F)F)cc32)C(=N)N1` [Example 100] as the compound, how does the EC50 (72 h, Table 3) read?
Its EC50 is 170 nM.

Which EC50 (72 h, Table 4 (unit inferred)) does the source give for `CCC1(CC)CC(=O)N([C@H](CCOC)[C@@H]2C[C@H]2C(=O)N[C@@H]2c3cc(Cl)ccc3OC(C)(C)[C@H]2O)C(=N)N1` [Example 150] here?
Its EC50 is 3.9 nM.

With `COCC[C@H]([C@@H]1C[C@H]1C(=O)N[C@H]1CC(C)(C)Oc2cc(C)ccc21)N1C(=N)NC(C)(C)CC1=O` [Example 83A] as the compound, how does the EC50 (72 h, Table 3) read?
The EC50 was 6.6 nM.

For `COCC[C@H]([C@@H]1C[C@H]1C(=O)N[C@@H]1CC(C)(C)Oc2cc(OC)ccc21)N1C(=N)NC(C)(C)CC1=O` [Example 70A], which EC50 (72 h, Table 3) is on record?
The EC50 was 77 nM.

How did the EC50 (Table 3) turn out when `CCC1(CC)CC(=O)N(C[C@@H]2C(C)[C@H]2C(=O)N[C@@H]2c3ccccc3CC2(C)O)C(=N)N1` (single isomer, unassigned) [Example 29C] was run?
Its EC50 is 113 nM.

Which EC50 (72 h, Table 4 (unit inferred)) does the source give for `CCC1(CC)CC(=O)N([C@H](CCOC)[C@@H]2C[C@H]2C(=O)N[C@@H]2c3ccccc3OC(C)(C)[C@H]2O)C(=N)N1` [Example 145] here?
Its EC50 is 8.4 nM.

`CCC1(C)CC(NC(=O)[C@@H]2C[C@H]2[C@@H](c2cccnc2)N2C(=N)NC(C)(C)CC2=O)c2ccccc2O1` (single isomer, unassigned) [Example 105B] was tested. Which EC50 (Table 3) did it give?
The EC50 was 1.8 nM.

Which EC50 (Table 3) does the source give for `COCC[C@H]([C@@H]1C[C@H]1C(=O)N[C@@H]1C[C@@H](C(F)(F)F)Oc2ccccc21)N1C(=N)NC(C)(C)CC1=O` [Example 24A] here?
Its EC50 is 3.4 nM.

For `CC(C)C1(C)CC(NC(=O)[C@@H]2C[C@H]2CN2C(=N)NC(C)(C)CC2=O)c2ccccc2O1` (single isomer, unassigned) [Example 79B], which EC50 (Table 3) is on record?
The EC50 was 275 nM.

Which EC50 (Table 3) does the source give for `CC(C)C1(C)CC(NC(=O)[C@@H]2C[C@H]2CN2C(=N)NC(C)(C)CC2=O)c2ccccc2O1` (single isomer, unassigned) [Example 79C] here?
Its EC50 is 289 nM.

Reference: patent publication US12338219B2, “Antimalarial agents” (Merck Sharp & Dohme LLC, priority 2019, dated 2025)
